Data reported in patent publication EP1337551B1, “SUBSTANCE P ANALOGS FOR THE TREATMENT OF CANCER” (DABUR PHARMA LTD., priority 2000, dated 2002).
Non-standard residues stand in square brackets, D forms with d. Residues, ends and D or L forms follow the SMILES beside them. pHOPA = not defined here

Tests used:
[1] = tested on: KB (oral); test: In vitro cytotoxic activity, MTT assay, 72 hours; type: cell-based, human
Protocol: (§1) The cytotoxic activity of synthesized peptides was tested on six human tumor cell lines namely MCF7 (breast), U373 (glioblastoma), PTC, (colon), L132 (lung), Su.86.86 (pancreas), and KB (oral). The tumor cells were collected at exponential growth phase and resuspended in medium (1.5 x 10^6 cells/ml in RPMI 1640 containing 10% FBS). 150µL of medium was added to the wells of a 96-well tissue culture plate (Nunc, Denmark) followed by 30µl of cell suspension. The plate was left in an incubator (37°C, 5% CO2) overnight. 20µl of the peptide (100 pM to 10 µM concentration) was added to marked wells of the 96-well plate. Each concentration was plated in triplicate. 20µl of medium alone was added to control wells while wells without cells served as blanks. A total volume of 200µL was ensured in each well and plate was left in incubator (37°C, 5% CO2). After 72 hours of incubation an MTT assay was performed and percentage cytotoxicity was calculated with respect to control cells.

[2] = tested on: L132 (lung); test: In vitro cytotoxic activity, MTT assay, 72 hours; type: cell-based, human
Protocol: as §1

[3] = tested on: MCF7 (breast); test: In vitro cytotoxic activity, MTT assay, 72 hours; type: cell-based, human
Protocol: as §1

[4] = tested on: PTC, (colon); test: In vitro cytotoxic activity, MTT assay, 72 hours; type: cell-based, human
Protocol: as §1

[5] = tested on: Su.86.86 (pancreas); test: In vitro cytotoxic activity, MTT assay, 72 hours; type: cell-based, human
Protocol: as §1

[6] = tested on: U373 (glioblastoma); test: In vitro cytotoxic activity, MTT assay, 72 hours; type: cell-based, human
Protocol: as §1

[7] = tested on: ECV304 (Endothelial); test: In vitro cytotoxic activity of lipo conjugates, MTT assay, 48 hours; type: cell-based
Protocol: (§2) The cytotoxic effect of lipo-conjugates of substance P analogs SEQ ID NO: 6, SEQ ID NO: 7 and SEQ ID NO: 8, was studied by MTT assay which is based on the principle of uptake of MTT [3-[4,5-dimethylthiazol-2-yl]-2,5-diphenyl tetrazolium bromide], a tetrazolium salt by the metabolically active cells where it is metabolized by active mitochondria in to a blue colored formazan product which can be read spectrophotometrically. Briefly, tumor cells - KB (Oral squamous), U87MG (Blioblastoma), HBL100 (Breast), HeP2 (Larngeal), ECV304 (Endothelial), PA-1 (Ovary) and L132 (Lunng) were incubated with the peptide analogs for 48 hours at 37°C in a 96-well culture plate, followed by the addition of 100 µg MTT and further incubation of 1 hour. The formazan crystals formed inside the cells were dissolved with a detergent comprising of 10% Sodium dodecyl sulfate and 0.01 N HCl and optical density read on a multiscan ELISA reader. The optical density was directly proportional to the number of proliferating and metabolically active cells. SEQ ID NO: 6

[8] = tested on: HBL100 (Breast); test: as above; type: cell-based
Protocol: as §2

[9] = tested on: HeP2 (Larngeal); test: as above; type: cell-based
Protocol: as §2

[10] = tested on: KB (Oral squamous); test: as above; type: cell-based
Protocol: as §2

[11] = tested on: L132 (Lunng); test: as above; type: cell-based
Protocol: as §2

[12] = tested on: PA-1 (Ovary); test: as above; type: cell-based
Protocol: as §2

[13] = tested on: U87MG (Blioblastoma); test: as above; type: cell-based
Protocol: as §2

[14] = tested on: SCLC; details: inhibition of SCLC proliferation; cited from earlier work
[15] = tested on: H-510 and H-69 SCLC cells; details: proliferation of H-510 and H-69 SCLC cells in liquid culture and in semi-solid media; cited from earlier work

For `CCCC(=O)N[C@H](CCCNC(=N)N)C(=O)N1CCC[C@H]1C(=O)N[C@@H](CCCCN)C(=O)N1CCC[C@H]1C(=O)N[C@H](Cc1ccccc1)C(=O)N[C@@H](CCC(N)=O)C(=O)N[C@H](Cc1c[nH]c2ccccc12)C(=O)N[C@@H](Cc1ccccc1)C(=O)N[C@H](Cc1c[nH]c2ccccc12)C(=O)N[C@@H](CC(C)C)C(=O)NC1(C(N)=O)CCCC1` [SEQ ID NO: 7, Butanoyl-D-Arg-Pro-Lys-Pro-D-Phe-Gln-D-Trp-Phe-D-Trp-Leu-Ac5c-NH2] (HELM PEPTIDE1{[CCCC(=O)[*:2]].[dR].P.K.P.[dF].Q.[dW].F.[dW].L.[O=C(C1(N[*:1])CCCC1)[*:2]].[am]}$$$$V2.0), the “Percentage cytotoxicity at different concentrations” value ([1]; 100pM) was “Nil”, the “Percentage cytotoxicity at different concentrations” value ([1]; 1nM) was 6 ± 0.9% and the “Percentage cytotoxicity at different concentrations” value ([1]; 10nM) was 10 ± 3.4%. For the same molecule, the “Percentage cytotoxicity at different concentrations” value ([1]; 100nM) was 10 ± 4.9%, the “Percentage cytotoxicity at different concentrations” value ([1]; 1µM) was 4 ± 2.6% and the “Percentage cytotoxicity at different concentrations” value ([1]; 10µM) was 15 ± 2.3%. For the same molecule, the “Percentage cytotoxicity at different concentrations” value ([2]; 100pM) was 14 ± 3.4%, the “Percentage cytotoxicity at different concentrations” value ([2]; 1nM) was 25 ± 8% and the “Percentage cytotoxicity at different concentrations” value ([2]; 10nM) was 19 ± 3.3%. The “Percentage cytotoxicity at different concentrations” value ([2]; 100nM) was 9 ± 2.3%, the “Percentage cytotoxicity at different concentrations” value ([2]; 1µM) was 9 ± 2.3% and the “Percentage cytotoxicity at different concentrations” value ([2]; 10µM) was 15 ± 2.3%. For the same molecule, the “Percentage cytotoxicity at different concentrations” value ([3]; MCF-7, 100pM) was 19.3 ±1.8%, the “Percentage cytotoxicity at different concentrations” value ([3]; MCF-7, 1nM) was 20.55 ± 3.1% and the “Percentage cytotoxicity at different concentrations” value ([3]; MCF-7, 10nM) was 5.7 ± 1.5%. The “Percentage cytotoxicity at different concentrations” value ([3]; MCF-7, 100nM) was 15.4 ± 0.7%, the “Percentage cytotoxicity at different concentrations” value ([3]; MCF-7, 1µM) was 11.7 ± 5.1% and the “Percentage cytotoxicity at different concentrations” value ([3]; MCF-7, 10µM) was 19.7 ±5%. For the same molecule, the “Percentage cytotoxicity at different concentrations” value ([4]; 100pM) was “Nil”, the “Percentage cytotoxicity at different concentrations” value ([4]; 1nM) was “Nil” and the “Percentage cytotoxicity at different concentrations” value ([4]; 10nM) was 5.8 ± 0.2%. The “Percentage cytotoxicity at different concentrations” value ([4]; 100nM) was 5.3 ± 0.2%, the “Percentage cytotoxicity at different concentrations” value ([4]; 1µM) was 11.7 ± 3.0% and the “Percentage cytotoxicity at different concentrations” value ([4]; 10µM) was 27.3 ± 5.4%. The “Percentage cytotoxicity at different concentrations” value ([5]; Su8686, 100pM) was 6 ± 1.8%, the “Percentage cytotoxicity at different concentrations” value ([5]; Su8686, 1nM) was 25 ± 5.3% and the “Percentage cytotoxicity at different concentrations” value ([5]; Su8686, 10nM) was 10 ± 2.8%. The “Percentage cytotoxicity at different concentrations” value ([5]; Su8686, 100nM) was 15 ± 3.8%, the “Percentage cytotoxicity at different concentrations” value ([5]; Su8686, 1µM) was 36 ± 3.3% and the “Percentage cytotoxicity at different concentrations” value ([5]; Su8686, 10µM) was 38 ± 4.3%. For the same molecule, the “Percentage cytotoxicity at different concentrations” value ([6]; 100pM) was 10.9 ± 1.0%, the “Percentage cytotoxicity at different concentrations” value ([6]; 1nM) was 13.4 ± 4.6% and the “Percentage cytotoxicity at different concentrations” value ([6]; 10nM) was 6.6 ± 0.7%. The “Percentage cytotoxicity at different concentrations” value ([6]; 100nM) was 8.8 ± 0.2%, the “Percentage cytotoxicity at different concentrations” value ([6]; 1µM) was 8.3 ± 0.5% and the “Percentage cytotoxicity at different concentrations” value ([6]; 10µM) was 21.1 ± 1.7%. The “Percentage cytotoxicity at different concentrations” value ([7]; 1nM) was 13.9 ± 4.5%, the “Percentage cytotoxicity at different concentrations” value ([7]; 10nM) was 16.5 ± 3.3% and the “Percentage cytotoxicity at different concentrations” value ([7]; 100nM) was 20.9 ± 2.3%. For the same molecule, the “Percentage cytotoxicity at different concentrations” value ([7]; 1µM) was 6.0 ± 2.4%, the “Percentage cytotoxicity at different concentrations” value ([8]; 1nM) was 13.9 ± 3.5% and the “Percentage cytotoxicity at different concentrations” value ([8]; 10nM) was 22.9 ± 3.8%. The “Percentage cytotoxicity at different concentrations” value ([8]; 100nM) was 23.9 ± 1.7%, the “Percentage cytotoxicity at different concentrations” value ([8]; 1µM) was 22.8 ± 1.4% and the “Percentage cytotoxicity at different concentrations” value ([9]; 1nM) was 16.4 ± 3.2%. For the same molecule, the “Percentage cytotoxicity at different concentrations” value ([9]; 10nM) was 19.8 ± 4.8%, the “Percentage cytotoxicity at different concentrations” value ([9]; 100nM) was 24.7 ± 2.5% and the “Percentage cytotoxicity at different concentrations” value ([9]; 1µM) was 12.9 ± 1.4%. The “Percentage cytotoxicity at different concentrations” value ([10]; 1nM) was 20.9 ± 3.6%, the “Percentage cytotoxicity at different concentrations” value ([10]; 10nM) was 21.9 ± 4.1% and the “Percentage cytotoxicity at different concentrations” value ([10]; 100nM) was 18.0 ± 5.2%. For the same molecule, the “Percentage cytotoxicity at different concentrations” value ([10]; 1µM) was 9.0 ± 5.3%, the “Percentage cytotoxicity at different concentrations” value ([11]; 1nM) was 14.9 ± 4.9% and the “Percentage cytotoxicity at different concentrations” value ([11]; 10nM) was 24.7 ± 3.5%. The “Percentage cytotoxicity at different concentrations” value ([11]; 100nM) was 18.5 ± 3.6%, the “Percentage cytotoxicity at different concentrations” value ([11]; 1µM) was 12.9 ± 2.4% and the “Percentage cytotoxicity at different concentrations” value ([12]; 1nM) was 12.7 ± 3.5%. For the same molecule, the “Percentage cytotoxicity at different concentrations” value ([12]; 10nM) was 26.7 ± 2.4%, the “Percentage cytotoxicity at different concentrations” value ([12]; 100nM) was 32.9 ± 2.6% and the “Percentage cytotoxicity at different concentrations” value ([12]; 1µM) was 23.7 ± 3.3%. For the same molecule, the “Percentage cytotoxicity at different concentrations” value ([13]; 1nM) was 22.9 ± 2.3%, the “Percentage cytotoxicity at different concentrations” value ([13]; 10nM) was 27.8 ± 2.2% and the “Percentage cytotoxicity at different concentrations” value ([13]; 100nM) was 21.8 ± 1.2%. For the same molecule, the “Percentage cytotoxicity at different concentrations” value ([13]; 1µM) was 14.8 ± 1.4%.
For “D-MePhe-D-Trp-Phe-D-TrpLeu(psi)-(CH2NH)-Leu-NH2 [Analog 6]”, the IC50 [14] is listed as 2 µM.
For “D-MePhe-D-Trp-Phe-DTrp-Leu-MPA [Analog 7]”, the IC50 [14] is given as 5 µM.
In the case of “[D-Arg^1, D-Phe^5, D-Trp^7,9, Leu^11] substance P [Antagonist D]”, the IC50 [15] is listed as 5 µM.
In the case of “pHOPA-D-Trp-Phe-D-Trp-Leu-Leu-NH2 (pHOPA-[dW]F[dW]LL-NH2; reading uncertain) [Analog R]”, the IC50 [14] is listed as 10 µM.
